In US20100148126A1 (priority 2008, published 2010):

Target: wild-type αHL protein pore (Staphylococcus aureus, UniProt P09616)
Type: binding

Sequence of wild-type αHL protein pore (P09616 27-319 limits assumed): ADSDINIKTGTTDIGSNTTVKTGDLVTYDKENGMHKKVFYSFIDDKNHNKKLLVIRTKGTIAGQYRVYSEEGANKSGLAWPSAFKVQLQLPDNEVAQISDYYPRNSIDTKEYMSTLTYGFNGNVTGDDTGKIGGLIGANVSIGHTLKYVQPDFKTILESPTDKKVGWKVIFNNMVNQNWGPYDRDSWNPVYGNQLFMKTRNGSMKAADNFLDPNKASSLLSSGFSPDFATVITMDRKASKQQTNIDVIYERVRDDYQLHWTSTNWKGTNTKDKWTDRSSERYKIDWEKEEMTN

Compound: Cl.ClCCN1CCOCC1 [CM, 4-(2-chloroethyl)morpholine hydrochloride]
- mean amplitude of analyte-boromycin complex events: 33.5±1.2 pA
- τoff (mean dwell time) of analyte-boromycin complex: 34.7 ± 0.6 ms

Compound: CCNCC.Cl [DEA, diethylammonium chloride]
- mean amplitude of analyte-boromycin complex events: 33.6±0.8 pA
- τoff (mean dwell time) of analyte-boromycin complex: 40.5 ± 0.5 ms

Compound: CCN(CC)CC.Cl [TEA, triethylammonium chloride]
- mean amplitude of analyte-boromycin complex events: 33.7±0.4 pA
- τoff (mean dwell time) of analyte-boromycin complex: 60.6 ± 1.9 ms

Compound: KCl [K^+]
- mean amplitude of analyte-boromycin complex events: 33.6±0.3 pA
- τoff (mean dwell time) of analyte-boromycin complex: 52.1 ± 0.3 ms

Compound: NH4Cl [NH4^+]
- mean amplitude of analyte-boromycin complex events: 33.7±0.2 pA
- τoff (mean dwell time) of analyte-boromycin complex: 75.0 ± 1.6 ms

Compound: boromycin
- increase of event mean dwell time in BMIM-Cl versus NaCl: 2.6 fold
